Test results reported in patent publication US12065416B2, “cGAS antagonist compounds” (IMMUNESENSOR THERAPEUTICS, INC., priority 2016, dated 2024).
pIC50: −log10 of the molar value.

Molecular target: T1, recombinant cGAS (aa147-522) (Homo sapiens, UniProt Q8N884)
T1 construct: recombinant cGAS (aa147-522); His6-SUMO (N, cleaved yes); made in house; host or cells: E. coli BL21/pLys
Test: In vitro assay for inhibition of cGAS activity (ATP consumption, Kinase Glo)
Type: biochemical
Conditions: 37° C. 20 minutes, read-out: Activity (Inhibition of cGAS enzyme activity in vitro, IC50)
Protocol: cDNA encoding full-length or amino acids 147-520 of human cGAS is inserted into a modified pET28a vector containing an in-frame His6-SUMO tag. The E. coli strain BL21/pLys harboring the plasmid is induced with 0.5 mM IPTG at 18° C. overnight. His6-SUMO tag was removed by a SUMO proease following purification of the HiS-SUMO-cGAS as described previously (Sun et al, 2013, Science 339, 786).
A40 μL mixture containing 1.5 ng/μL of recombinant cGAS (aa147-522) and serial dilutions of a test compound or DMSO was added to a 96-well plate and incubated at 37° C. for 20 minutes. At the end of reaction, 20 μL of Kinase Glo (Promega) was added and chemiluminescence measured with a luminometer. Inhibitory effect of a compound is evaluated by plotting percentage of ATP consumption against logarithm of compound concentrations. IC50 value was calculated using Graphpad (Sigma).

T1 sequence (Q8N884 147-522): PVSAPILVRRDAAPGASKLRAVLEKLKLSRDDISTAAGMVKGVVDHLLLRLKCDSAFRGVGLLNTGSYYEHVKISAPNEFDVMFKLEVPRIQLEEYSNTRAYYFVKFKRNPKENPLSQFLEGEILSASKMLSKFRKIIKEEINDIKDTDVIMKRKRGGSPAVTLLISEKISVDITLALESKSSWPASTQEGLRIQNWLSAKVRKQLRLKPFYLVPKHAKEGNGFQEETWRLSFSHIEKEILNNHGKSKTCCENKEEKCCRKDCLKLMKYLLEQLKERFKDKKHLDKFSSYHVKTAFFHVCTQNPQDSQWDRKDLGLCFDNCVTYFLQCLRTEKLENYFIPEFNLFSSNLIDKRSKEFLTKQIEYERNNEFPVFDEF

SMILES	pIC50
CN1C(=O)S/C(=C\c2cc(OCc3cnc(NC(=O)c4ccncc4)nc3)c(O)c(F)c2Br)C1=O [Ex191]	≥ 6.30
CN1C(=O)S/C(=C\c2cc(OCc3cnc(NCc4ccccc4)nc3)c(O)cc2Br)C1=O [Ex154]	5.00 to 6.30
COc1cccc(Oc2cc(/C=C3\SC(=O)N(C)C3=O)c(Br)cc2O)c1N [ExB11]	≤ 5.00
CCC/N=C1/S/C(=C\c2cc(OC)c(O)cc2Br)C(=O)N1C [ExB24]	≤ 5.00
CN1C(=O)S/C(=C\c2cc(Oc3ccc(-c4cccnc4)cc3)c(O)cc2Br)C1=O [ExB28]	≤ 5.00
COc1cc(/C=C2\Sc3ncccc3C2=O)c(Br)c(Cl)c1O [Ex46]	≥ 6.30
COc1cc(/C=C2\Sc3ncccc3C2=O)c(Br)cc1Oc1cnc(N)s1 [Ex74]	5.00 to 6.30
O=C1NC(=O)/C(=C2\CCCc3cnccc32)S1 [Ex5]	≥ 6.30
CN1C(=O)S/C(=C\c2cc(OCC3CCN(C(=O)c4cccnc4)CC3)c(O)cc2Br)C1=O [Ex129]	5.00 to 6.30
CN1C(=O)S/C(=C\c2cc(OCc3cnc(N4CCCCC4)nc3)c(O)cc2Br)C1=O [Ex164]	≤ 5.00
COc1cc(/C=C2\SC(=O)N(C)C2=O)c(Br)cc1NS(=O)(=O)c1ccccc1 [Ex23]	≤ 5.00
COc1cc(/C=C2\SC(=O)N(C)C2=O)c(Br)cc1Oc1cnc(NCc2cccnc2)s1 [Ex207]	5.00 to 6.30
CN1C(=O)S/C(=C\c2cc3c(Cc4cnc(N)nc4)c[nH]c3cc2Br)C1=O [Ex208]	5.00 to 6.30
CN1C(=O)S/C(=C\c2cc(OCc3cnc(-c4ccccn4)nc3)c(O)cc2Br)C1=O [Ex97]	5.00 to 6.30
CN1C(=O)S/C(=C\c2cc(OCc3cncnc3O)c(O)cc2Br)C1=O [Ex218]	≥ 6.30
COc1cc(/C=C2\SC(=O)N(C)C2=O)c(Br)cc1-c1nn[nH]n1 [Ex35]	5.00 to 6.30
CN1C(=O)S/C(=C\c2cc(OCc3ccccn3)c(O)cc2Br)C1=O [Ex89]	5.00 to 6.30
CC(=O)c1cc(/C=C2\SC(=O)N(C)C2=O)c(Br)cc1Oc1cnc(N)s1 [ExB34]	≤ 5.00
CN1C(=O)S/C(=C\c2cc(OCC3CCN(C(=O)c4ccccc4)CC3)c(O)cc2Br)C1=O [Ex127]	5.00 to 6.30
CN1C(=O)S/C(=C\c2cc(OCc3cncc(NC(=O)c4cccnc4)c3)c(O)cc2Br)C1=O [Ex224]	5.00 to 6.30
CN1C(=O)S/C(=C\c2cc(OCc3cnc([S+](C)[O-])nc3Cl)c(O)cc2Br)C1=O (centres unmarked) [Ex214]	5.00 to 6.30
COc1cc(/C=C2\SC(=O)N(C)C2=O)c(Br)cc1Oc1ccncc1 [Ex202]	5.00 to 6.30

SMILES	pIC50
COc1cc(/C=c2\sc3ncc(C)n3c2=O)c(Br)cc1O [Ex17]	≤ 5.00
CN1C(=O)S/C(=C\c2cc(OC(F)(F)F)c(Oc3cnc(N)s3)cc2Br)C1=O [ExB33]	≤ 5.00
CN1C(=O)S/C(=C\c2ccc(O)cc2Br)C1=O [Ex52]	5.00 to 6.30
CN1C(=O)S/C(=C\c2cc(OCc3cnc(O)nc3)c(O)cc2Br)C1=O [Ex217]	5.00 to 6.30
CNc1ncc(COc2cc(/C=C3\SC(=O)N(C)C3=O)c(Br)c(F)c2O)cn1 [Ex187]	≥ 6.30
CC/N=C1/S/C(=C\c2cc(OC)c(O)cc2Br)C(=O)N1C [ExB23]	≤ 5.00
CC(Oc1cc(/C=C2\SC(=O)N(C)C2=O)c(Br)cc1O)c1cncnc1 (centres unmarked) [Ex103]	5.00 to 6.30
CN1C(=O)S/C(=C\c2cc(Oc3ccc([N+](=O)[O-])nc3)c(O)cc2Br)C1=O [Ex102]	5.00 to 6.30
CN1C(=O)S/C(=C\c2cc(Oc3ccc(-c4ccccn4)cc3)c(O)cc2Br)C1=O [ExB26]	≤ 5.00
CN1C(=O)S/C(=C\c2cc(OCc3cc[nH]c(=O)c3)c(O)cc2Br)C1=O [Ex134]	5.00 to 6.30
CC(C)C(=O)Nc1cncc(COc2cc(/C=C3\SC(=O)N(C)C3=O)c(Br)cc2O)c1 [Ex226]	≤ 5.00
CN1C(=O)S/C(=C\c2cc(OCc3cnc(N)nc3C3CC3)c(O)c(F)c2Br)C1=O [Ex109]	5.00 to 6.30
CN1C(=O)S/C(=C\c2cc(O)c(O)cc2F)C1=O [Ex10]	≤ 5.00
CN1C(=O)S/C(=C\c2cc(OCC(F)(F)c3cnc(N)nc3)c(O)c(F)c2Br)C1=O [ExA20]	5.00 to 6.30
Cc1nc2c(Oc3cc(/C=C4\SC(=O)N(C)C4=O)c(Br)cc3O)cccc2o1 [ExB13]	5.00 to 6.30
Cc1ncc(COc2cc(/C=C3\Sc4ncccc4C3=O)c(Br)cc2O)c(C)n1 [Ex120]	≥ 6.30
CN1CCC(COc2cc(/C=C3\SC(=O)N(C)C3=O)c(Br)cc2O)CC1 [Ex126]	5.00 to 6.30
COc1cc(/C=C2\SC(=O)N(C)C2=O)c(Br)cc1Oc1nncs1 [Ex201]	5.00 to 6.30
O=C1NC(=O)/C(=C/c2ccncc2)S1 [Ex1]	≥ 6.30
O=C1NC(=O)/C(=C/c2ccncc2C(F)(F)F)S1 [Ex4]	≤ 5.00
CN1C(=O)S/C(=C\c2cc(Oc3cccc4c3COCC4)c(O)cc2Br)C1=O [ExB27]	≤ 5.00
CN1C(=O)S/C(=C\c2cc(OCc3cncc(NCc4ccccn4)c3)c(O)cc2Br)C1=O [Ex227]	≤ 5.00

SMILES	pIC50
Cc1nc([S+](C)[O-])nc(C)c1COc1cc(/C=C2\SC(=O)N(C)C2=O)c(Br)cc1O (centres unmarked) [Ex215]	5.00 to 6.30
CN1C(=O)S/C(=C\c2cc(Oc3cnc(N)s3)c(O)c(F)c2Br)C1=O [ExB30]	5.00 to 6.30
CN1C(=O)S/C(=C\c2cc(OCc3ccccc3)c(O)cc2Br)C1=O [Ex88]	5.00 to 6.30
CC(Oc1cc(/C=C2\SC(=O)N(C)C2=O)c(Br)c(F)c1O)c1cncnc1 (centres unmarked) [Ex192]	5.00 to 6.30
CN1C(=O)S/C(=C\c2cc(OCc3cnc(S(C)(=O)=O)nc3Cl)c(O)cc2Br)C1=O [Ex221]	5.00 to 6.30
CN1C(=O)S/C(=C\c2cc(Oc3cccc4ncccc34)c(O)cc2Br)C1=O [ExB5]	≤ 5.00
COc1cc(/C=C2\SC(=O)N(C)C2=O)c(C(F)(F)F)cc1O [Ex31]	5.00 to 6.30
CN1C(=O)S/C(=C\c2cc(OCc3ccc(NC(=O)c4ccncc4)nc3)c(O)cc2Br)C1=O [Ex54]	≥ 6.30
COc1cc(/C=C2\Sc3ncccc3C2=O)c(I)cc1O [Ex77]	≥ 6.30
O=C1/C(=C/c2cc(OCc3cnc(NCc4cccnc4)nc3)c(O)cc2Br)Sc2ncccc21 [Ex199]	≥ 6.30
CC(C)Nc1ncc(COc2cc(/C=C3\SC(=O)N(C)C3=O)c(Br)cc2O)cn1 [Ex150]	5.00 to 6.30
CC(=O)c1cc(N)ccc1Oc1cc(/C=C2\SC(=O)N(C)C2=O)c(Br)c(F)c1O [ExB7]	≤ 5.00
O=C1NC(=O)/C(=C/c2c[nH]cn2)S1 [Ex6]	≤ 5.00
CN1C(=O)S/C(=C\c2cc(OCc3cn(-c4ccccc4)nn3)c(O)cc2Br)C1=O [Ex232]	≤ 5.00
COc1cc(/C=C2\SC(=O)N(C)C2=O)c(C)cc1O [Ex64]	5.00 to 6.30
CC(Oc1cc(/C=C2\Sc3ncccc3C2=O)c(Br)cc1O)c1cccnc1 (centres unmarked) [Ex119]	5.00 to 6.30
CNc1ncc(C(C)Oc2cc(/C=C3\SC(=O)N(C)C3=O)c(Br)cc2O)cn1 (centres unmarked) [Ex105]	5.00 to 6.30
CN1C(=O)S/C(=C\c2cc(C(F)(F)F)c(O)cc2Br)C1=O [ExB16]	≥ 6.30
CN1C(=O)S/C(=C\c2cc3oc(=O)[nH]c3cc2Br)C1=O [Ex25]	5.00 to 6.30
CN1CCC(c2ncc(COc3cc(/C=C4\SC(=O)N(C)C4=O)c(Br)cc3O)cn2)CC1 [Ex209]	5.00 to 6.30
O=C1NC(=O)/C(=C/c2ccnnc2)N1 [Ex15]	≤ 5.00
C/C(=C1/SC(=O)NC1=O)c1ccncc1 [Ex12]	≥ 6.30

SMILES	pIC50
COc1cc(/C=C2\Sc3ncc(F)cc3C2=O)c(Br)cc1O [Ex48]	≥ 6.30
CN1C(=O)S/C(=C\c2cc(OCc3ccc4cccnc4c3)c(O)cc2Br)C1=O [Ex175]	5.00 to 6.30
CN1C(=O)S/C(=C\c2cc(OCc3cnc(Nc4ccccn4)nc3)c(O)cc2Br)C1=O [Ex83]	5.00 to 6.30
CN1C(=O)S/C(=C\c2cc(OCc3cncc(NC(=O)c4ccncc4)c3)c(O)cc2Br)C1=O [Ex225]	≤ 5.00
CN1C(=O)S/C(=C\c2cc(OCc3ccn(-c4ccccc4)c(=O)c3)c(O)cc2Br)C1=O [Ex136]	5.00 to 6.30
CNc1ncc(C(C)Oc2cc(/C=C3\SC(=O)N(C)C3=O)c(Br)c(F)c2O)cn1 (centres unmarked) [Ex111]	5.00 to 6.30
COc1nc([S+](C)[O-])ncc1COc1cc(/C=C2\SC(=O)N(C)C2=O)c(Br)cc1O (centres unmarked) [Ex212]	5.00 to 6.30
CN1C(=O)S/C(=C\c2cc(OCC3CCN(C(=O)c4ccccn4)CC3)c(O)cc2Br)C1=O [Ex128]	5.00 to 6.30
N=C1NC(=O)/C(=C/c2ccncc2)S1 [Ex9]	≤ 5.00
CC(=O)c1cc(/C=C2\SC(=O)N(C)C2=O)c(Br)cc1O [Ex59]	5.00 to 6.30
CN1C(=O)S/C(=C\c2cc(OCCc3cnc(N)nc3N)c(O)c(F)c2Br)C1=O [ExB32]	≥ 6.30
COc1nc(S(C)(=O)=O)ncc1COc1cc(/C=C2\SC(=O)N(C)C2=O)c(Br)cc1O [Ex220]	5.00 to 6.30
CN1C(=O)S/C(=C\c2cc(OCC3(c4cnc(N)nc4)CC3)c(O)c(F)c2Br)C1=O [ExB6]	5.00 to 6.30
COc1cc(/C=C2\Sc3ncncc3C2=O)c(Br)cc1O [Ex51]	5.00 to 6.30
O=C1/C(=C/c2cc(OCc3ccncc3)c(O)cc2Br)Sc2ncccc21 [Ex72]	≥ 6.30
CN1C(=O)S/C(=C\c2cc3cc[nH]c3cc2Br)C1=O [Ex66]	5.00 to 6.30
CSc1nc([S+](C)[O-])ncc1COc1cc(/C=C2\Sc3ncccc3C2=O)c(Br)c(F)c1O (centres unmarked) [ExA16]	≥ 6.30
CC(C)c1cc(/C=C2\SC(=O)N(C)C2=O)c(Br)cc1O [ExB18]	≤ 5.00
CSc1ncc(COc2cc(/C=C3\SC(=O)N(C)C3=O)c(Br)cc2O)c(Cl)n1 [Ex98]	5.00 to 6.30
CN1C(=O)S/C(=C\c2cc(OCc3ccnc4ccccc34)c(O)cc2Br)C1=O [Ex178]	5.00 to 6.30
